From US20170333450A1, “COMPOSITIONS AND METHODS FOR TREATING HIV-ASSOCIATED COGNITIVE DYSFUNCTION” (The Regents of the University of California, priority 2014, published 2017) come the findings set out here.

“Also recorded” adds a separate entry of the source.

Experiment [1] relates to primary rodent neurons. As to the kind of experiment: Neurotoxicity of MDM culture supernatants on cultured primary rodent neurons (MAP-2 expression). The format is cell-based. The settings on record: supernatants of HIV infected MDM on primary rodent neurons, FIG. 1, Panel C. An excerpt: (§1) FIG. 1 includes three panels identified as panels A, B, and C showing the results of preclinical testing of Bardoxolone in human monocyte-derived macrophages (MDM) and primary rodent neurons. […] “Mock 1” and “Mock 2” correspond to supernatant from untreated, uninfected macrophages run in parallel with treated macrophages. “Vehicle 1” and “Vehicle 2” correspond to supernatant from macrophages that received 0.05% DMSO and no additional drug. […] This effect is seen at Bardoxolone concentrations as low as 5 nM.
In addition, pre-treated neurons were exposed to the supernatants. Briefly, MDM culture supernatants are applied to cultured primary rodent neurons to test for MDM culture supernatant neurotoxicity. […] This is an indication of neuronal health.

In experiment [2] the test system is heme-oxygenase-1 (HO-1). The experiment in a line: HO-1 expression in HIV-infected and non-infected monocyte-derived macrophages (MDM) treated with test drug. The settings on record: Bardoxolone 5 nM or 50 nM, FIG. 1, Panel A. The format is cell-based, human.
From the text: as §1
(§2) Monocyte-derived macrophages (MDM), obtained from uninfected donors, were pretreated with Bardoxolone (5 nM or 50 nM), Tempol, 4-hydroxy-2,2,6,6-tetramethylpiperidin-1-oxyl, (500 nM or 5 μM) or control (0.05% DMSO) for 24 hours prior to HIV infection. […] See FIG. 1, Panel A. This enhanced HO-1 expression decreases release of soluble neurotoxins from infected MDM. “Mock 1” and “Mock 2” correspond to supernatant from untreated, uninfected macrophage run in parallel with treated macrophages. “Vehicle 1” and “Vehicle 2” correspond to supernatant from macrophages that received 0.05% DMSO and no additional drug. Final concentration of DMSO in all treated wells is 0.05%.

Experiment [3] relates to HIV. As to the kind of experiment: HIV replication in MDM by reverse transcriptase (RT) activity in the culture supernatant. In kind it is cell-based. The note with it: FIG. 1, Panel B.
From the text: as §1, §2
Viral replication was determined via reverse, transcriptase (RT) expression in the cell culture supernatant. The RT assay measured incorporation of ^32P dT into long chain poly rA.

Experiment [4] concerns HIV-infected U1 monocytes. As to the kind of experiment: Viral expression (p24 gag) in HIV-infected U1 monocytes after LPS stimulation. In kind it is cell-based. The settings on record: 250 nM pre-treatment overnight, LPS activated; FIG. 2. Here is the method:
As such, methods for reducing viral replication may reduce risk for HAND. In another series of experiments, HIV-infected monocytes were exposed to a virus replication stimulus to determine if pretreatment with Bardoxolone inhibited viral replication. […] Here, a comparison of control cells with those pre-treated with either Tempol (1 μM) or Bardoxolone (250 nM) overnight was performed. The cells were then split into two conditions: LPS activated and non-LPS.

On to `CC1(C)CC[C@]2(C(=O)O)CC[C@]3(C)[C@H](C(=O)C=C4[C@@]5(C)C=C(C#N)C(=O)C(C)(C)[C@@H]5CC[C@]43C)[C@@H]2C1` [Bardoxolone], for which, in experiment [1], the “levels of MAP-2 in the neuron cultures” value is recorded as “maintenance or normal levels”. Besides, the “neurotoxicity of the MDM cell culture supernatants” value in experiment [1] (compared to vehicle control and to Tempol) is listed as “dramatically reduced”. Moreover, the “expression of HO-1 in HIV-infected MDM” value in experiment [2] (24 hours before HIV infection and throughout infection) is listed as “enhanced expression”. In experiment [2], the “expression of HO-1 in non-infected MDM” value is reported as “enhanced expression”. Besides, the “concentration at which reduction of HIV replication in MDM is seen” value in experiment [3] (lowest concentration tested, RT activity) is reported as ≤ 5 nM. For the same compound, the “HIV reverse transcriptase (RT) activity in the culture supernatants (HIV replication in MDM)” value in experiment [3] (pre-treatment 24 hours before HIV infection, 5 nM or 50 nM) is recorded as “reduced levels”. Besides, in experiment [4], the “amount of viral expression (p24 gag) following stimulation” value was “reduced; also recorded: decreased”.
